Test results: article PMC8424629, “Chemical “Butterfly Effect” Explaining the Coordination Chemistry and Antimicrobial Properties of Clavanin Complexes” (Inorganic Chemistry, 2021)
≈ marks a conversion by molar mass, not a printed value. Read-outs that look alike come from different tables or passages of the source. Where no end group is shown, it is not given here.

Key:
[1] = test system: Enterococcus spp. (for E. faecalis); parameters: method as in earlier work; settings: EUCAST/2021/01/01, ref 22 (SI), cited from earlier work; for MIC breakpoints R>: resistant breakpoint; for MIC breakpoints S≤: susceptible breakpoint
[2] = test system: Staphylococcus spp. (for S. aureus); parameters: method as in earlier work; settings: EUCAST/2021/01/01, ref 22 (SI), cited from earlier work; for MIC breakpoints R>: resistant breakpoint; for MIC breakpoints S≤: susceptible breakpoint
[3] = format: physicochemical; settings: for log β H2L / log β H3L / log β H4L / log β H5L / log β H6L / log β HL: potentiometry pH 2-11, 298 K, 4 mM HClO4, I = 40 mM SDS, ligand 0.5 mM, SD in parentheses
Experimental: (§1) All peptides ([…]-COOH, […]-COOH, […]
(§2) were purchased from KareBay Biochem (USA) (certified purity: 98 %) and were used as received.
(§3) The carbonate-free stock solutions of 0.1 M NaOH were purchased from Sigma-Aldrich and then potentiometrically standardized with the primary standard potassium hydrogen phthalate (99.9 % purity). […]
(§4) Stability constants for proton, Zn(II) and Cu(II) complexes were calculated from pH -metric titration curves carried out over the pH range 2-11 at T = 298 K in water solution of 4 mM HClO 4 and ionic strength 40 mM (SDS), using a total volume of 3 ml. The potentiometric titrations were performed using a Metrohm Titrando 905 titrator and a Mettler Toledo InLab Micro comb ined pH electrode. The thermostabilized glass -cell was equipped with a magnetic stirring system, a microburette delivery tube and an inlet –outlet tube for argon.
(§5) Solutions were titrated with 0.1 M carbonate-free NaOH. The electrodes were calibrated daily f or hydrogen ion concentration by titrating HClO 4 with NaOH under the same experimental conditions as above. The purities and the exact concentrations of the ligand solutions were determined by the Gran method. 1 The ligand concentration was 0.5 mM. The Zn(II) and Cu(II) to ligand ratio was 1 : 1.
(§6) The standard potential and the slope of the electrode couple were computed by means of Glee 2 program. The HYPERQUAD 20063 program was used for the stability constant calculations. The standard deviations were computed by HYPERQUAD 2006 and refer to random errors only. The constants for the hydrolytic Zn(II ) species

[4] = format: binding; settings: for log β ZnH2L / log β ZnH3L / log β ZnH4L / log β ZnHL / log β ZnL: Zn(II):L 1:1, 0.5 mM
Experimental: as §1, §2, §3, §4, §5, §6

[5] = test system: Enterobacterales (for E. coli); parameters: method as in earlier work; settings: EUCAST/2021/01/01, ref 22 (SI), cited from earlier work; for MIC breakpoints R>: resistant breakpoint; for MIC breakpoints S≤: susceptible breakpoint
[6] = test system: Enterococcus faecalis ATCC 29212; settings: ATCC 29212, 24 h
[7] = test system: Candida albicans ATCC 10231; settings: ATCC 10231, 24 h
E. coli = settings: literature describes C-amidated clavanins, cited from earlier work
Text: During the over 20-year study on clavanins (mainly clavanin A), various modes of action were proposed.[15],[18],[19] […] The second is observed at acidic pH (5.5) when clavanin A binds to DNA and disrupts DNA synthesis, similarly to indolicidin.[20] The third mechanism, which also occurs at pH 5.5, is assigned not to the “single” clavanin A but to its Zn(II) complex, which cleav ...

[8] = test system: MRSA Staphylococcus aureus ATCC 43300; settings: ATCC 43300, 24 h
[9] = potentiometry, 298 K, I = 40 mM SDS, Cu(II):L 1:1, 0.5 mM, SD in parentheses
[10] = potentiometry, 298 K, I = 40 mM SDS, SD in parentheses

## CC1(C)S[C@@H]2[C@H](NC(=O)[C@H](N)c3ccc(O)cc3)C(=O)N2[C@H]1C(=O)O [Amoxicillin]
[1]
  MIC breakpoints R>: > 8 µg/mL
  MIC breakpoints S≤: ≤ 4 µg/mL

## O=C(N[C@H](CO)[C@H](O)c1ccc([N+](=O)[O-])cc1)C(Cl)Cl [Chloramphenicol]
[2]
  MIC breakpoints R>: > 8 µg/mL
  MIC breakpoints S≤: ≤ 8 µg/mL

## H-VFQFLGRIIHHVGNFVHGFSHVF-OH [Clavanin B]
[3]
  log β H2L: 20.21 (2)
  log β H3L: 28.47 (2)
  log β H4L: 36.26 (2)
  log β H5L: 43.35 (2)
  log β H6L: 48.47 (2)
  log β HL: 11.17 (1)
[4]; [9]
  log β CuH2L: 28.72 (3)
  log β CuH3L: 35.57 (2)
  log β CuH4L: 41.57 (3)
  log β CuH-1L: 2.96 (3)
  log β CuH-2L: -7.17 (3)
  log β CuH-3L: -18.46 (4)
  log β CuHL: 21.00 (3)
  log β CuL: 12.37 (3)
[4]; [10]
  log β ZnH2L: 25.24 (2)
  log β ZnH3L: 32.61 (2)
  log β ZnH4L: 39.23 (7)
  log β ZnHL: 16.85 (1)
  log β ZnL: 6.53 (7)

## CC1=C(C(=O)O)N2C(=O)[C@@H](NC(=O)[C@H](N)c3ccccc3)[C@H]2SC1 [Cefalexin]
[5]
  MIC breakpoints R>: > 16 µg/mL
  MIC breakpoints S≤: ≤ 16 µg/mL

## CC1(C)S[C@@H]2[C@H](NC(=O)[C@H](C(=O)O)c3ccsc3)C(=O)N2[C@H]1C(=O)O [Ticarcillin]
[5]
  MIC breakpoints R>: > 16 µg/mL
  MIC breakpoints S≤: ≤ 8 µg/mL

## CC1=C(C(=O)O)N2C(=O)[C@@H](NC(=O)[C@H](N)c3ccc(O)cc3)[C@H]2SC1 [Cefadroxil]
[5]
  MIC breakpoints R>: > 16 µg/mL
  MIC breakpoints S≤: ≤ 16 µg/mL

## H-VFQFLGKIIHHVGNFVHGFSHVF-OH [Clavanin A]
[3]
  pKa, species H2L: 8.88
  pKa, species H3L: 8.09
  pKa, species H4L: 7.63
  pKa, species H5L: 6.92
  pKa, species H6L: 5.32
  pKa, species HL: 10.18
  log β H2L: 19.06 (6)
  log β H3L: 27.15 (8)
  log β H4L: 34.78 (7)
  log β H5L: 41.7 (8)
  log β H6L: 47.02 (10)
  log β HL: 10.18 (6)
[4]
  pKa, line CuH2L: 6.82
  pKa, line CuH3L: 6.01
  pKa, line CuH-1L: 8.82
  pKa, line CuH-2L: 9.76
  pKa, line CuH-3L: 10.16
  pKa, line CuHL: 7.56
  pKa, line CuL: 8.36
  pKa, line ZnH2L: 7.15
  pKa, line ZnH3L: 6.59
  pKa, line ZnHL: 8.53
  pKa, line ZnL: 9.36
[4]; [9]
  log β CuH2L: 27.53 (3)
  log β CuH3L: 34.35 (2)
  log β CuH4L: 40.36 (2)
  log β CuH-1L: 2.79 (3)
  log β CuH-2L: -6.97 (3)
  log β CuH-3L: -17.13 (3)
  log β CuHL: 19.97 (3)
  log β CuL: 11.61 (3)
[4]; [10]
  log β ZnH2L: 23.99 (2)
  log β ZnH3L: 31.14 (3)
  log β ZnH4L: 37.74 (12)
  log β ZnHL: 15.46 (2)
  log β ZnL: 6.10 (7)
[6]
  MIC: 256 µg/mL
[7]
  MIC: 128 µg/mL
E. coli; pH 5.5, with addition of Zn(II) ions
  minimum inhibitory concentration (MIC): 4 µM
E. coli; pH 5.5, without Zn(II)
  minimum inhibitory concentration (MIC): 64 µM

## NCC[C@H](O)C(=O)N[C@@H]1C[C@H](N)[C@@H](O[C@H]2O[C@H](CN)[C@@H](O)[C@H](O)[C@H]2O)[C@H](O)[C@H]1O[C@H]1O[C@H](CO)[C@@H](O)[C@H](N)[C@H]1O [Amikacin]
[2]
  MIC breakpoints R>: > 8 µg/mL
  MIC breakpoints S≤: ≤ 8 µg/mL

## CC1(C)S[C@@H]2[C@H](NC(=O)[C@H](N)c3ccccc3)C(=O)N2[C@H]1C(=O)O [Ampicillin]
[1]
  MIC breakpoints R>: > 8 µg/mL
  MIC breakpoints S≤: ≤ 4 µg/mL

## H-LFKLLGKIIHHVGNFVHGFSHVF-OH [Clavanin E]
[3]
  pKa, species H2L: 9.19
  pKa, species H3L: 8.29
  pKa, species H4L: 7.82
  pKa, species H5L: 7.30
  pKa, species H6L: 5.55
  pKa, species HL: 10.77
  log β H2L: 19.96 (3)
  log β H3L: 28.25 (3)
  log β H4L: 36.07 (3)
  log β H5L: 43.37 (3)
  log β H6L: 48.92 (4)
  log β HL: 10.77 (2)
[4]
  pKa, line CuH2L: 6.90
  pKa, line CuH3L: 5.96
  pKa, line CuH4L: 5.16
  pKa, line CuH-1L: 8.78
  pKa, line CuH-2L: 10.05
  pKa, line CuH-3L: 10.37
  pKa, line CuHL: 7.72
  pKa, line CuL: 8.81
  pKa, line ZnH2L: 7.18
  pKa, line ZnHL: 8.62
  pKa, line ZnL: 9.77
[4]; [9]
  log β CuH2L: 29.52 (3)
  log β CuH3L: 36.42 (3)
  log β CuH4L: 42.38 (2)
  log β CuH5L: 47.54 (3)
  log β CuH-1L: 4.21 (4)
  log β CuH-2L: -5.84 (4)
  log β CuH-3L: -16.21 (5)
  log β CuHL: 21.80 (3)
  log β CuL: 12.99 (4)
[4]; [10]
  log β ZnH2L: 25.12 (5)
  log β ZnH3L: 32.30 (11)
  log β ZnHL: 16.50 (6)
  log β ZnL: 6.73
[7]
  MIC: 32 µg/mL

## CCN1CCN(C(=O)N[C@@H](C(=O)N[C@@H]2C(=O)N3[C@@H]2SC(C)(C)[C@@H]3C(=O)O)c2ccccc2)C(=O)C1=O [Piperacillin]
[5]
  MIC breakpoints R>: > 8 µg/mL
  MIC breakpoints S≤: ≤ 8 µg/mL

## CC[C@H](C)[C@H](NC(=O)[C@H](CCCCN)NC(=O)CNC(=O)[C@H](CC(C)C)NC(=O)[C@H](CC(C)C)NC(=O)[C@H](Cc1c[nH]cn1)NC(=O)[C@H](Cc1ccccc1)NC(=O)[C@@H](N)C(C)C)C(=O)N[C@H](C(=O)N[C@@H](Cc1c[nH]cn1)C(=O)N[C@@H](Cc1c[nH]cn1)C(=O)N[C@H](C(=O)NCC(=O)N[C@@H](CC(N)=O)C(=O)N[C@@H](Cc1ccccc1)C(=O)N[C@H](C(=O)N[C@@H](Cc1ccc(O)cc1)C(=O)NCC(=O)N[C@@H](Cc1ccccc1)C(=O)N[C@@H](CO)C(=O)N[C@@H](Cc1c[nH]cn1)C(=O)N[C@H](C(=O)N[C@@H](Cc1ccccc1)C(=O)O)C(C)C)C(C)C)C(C)C)[C@@H](C)CC [Clavanin C]
[3]
  pKa, species H2L: 8.87
  pKa, species H3L: 8.08
  pKa, species H4L: 7.57
  pKa, species H5L: 7.10
  pKa, species H6L: 5.25
  pKa, species HL: 10.72
[4]
  pKa, line CuH4L: 4.99
  pKa, line CuH-1L: 8.09
  pKa, line CuH-2L: 10.66
  pKa, line CuHL: 6.10
  pKa, line CuL: 6.98
[6]
  MIC: 128 µg/mL (≈ 48 µM)
[8]
  MIC: 128 µg/mL (≈ 48 µM)
[7]
  MIC: 64 µg/mL (≈ 24 µM)

## C[C@@H]1O[C@@H]1P(=O)(O)O [Fosfomycin iv, Fosfomycin]
[5]
  MIC breakpoints R>: > 32 µg/mL
  MIC breakpoints S≤: ≤ 32 µg/mL
[2]
  MIC breakpoints R>: > 32 µg/mL
  MIC breakpoints S≤: ≤ 32 µg/mL

## O=[N+]([O-])c1ccc(O)c2ncccc12 [Nitroxoline]
[5]
  MIC breakpoints R>: > 16 µg/mL
  MIC breakpoints S≤: ≤ 16 µg/mL

## VFQFLGRIIHHVGNFVHGFSHVF [Clavanin B]
[3]
  pKa, species H2L: 9.04
  pKa, species H3L: 8.26
  pKa, species H4L: 7.79
  pKa, species H5L: 7.09
  pKa, species H6L: 5.12
  pKa, species HL: 11.17
[4]
  pKa, line CuH2L: 6.86
  pKa, line CuH3L: 5.99
  pKa, line CuH-1L: 9.40
  pKa, line CuH-2L: 10.14
  pKa, line CuH-3L: 11.28
  pKa, line CuHL: 7.71
  pKa, line CuL: 8.64
  pKa, line ZnH2L: 7.37
  pKa, line ZnH3L: 6.62
  pKa, line ZnHL: 8.39
  pKa, line ZnL: 10.32

## O=C1CN(/N=C/c2ccc([N+](=O)[O-])o2)C(=O)N1 [Nitrofurantoin]
[5]
  MIC breakpoints R>: > 64 µg/mL
  MIC breakpoints S≤: ≤ 64 µg/mL
[1]
  MIC breakpoints R>: > 64 µg/mL
  MIC breakpoints S≤: ≤ 64 µg/mL
[2]
  MIC breakpoints R>: > 64 µg/mL
  MIC breakpoints S≤: ≤ 64 µg/mL
